From US7425641B2, “Carboxylic acid amides, the preparation thereof and their use as pharmaceutical compositions” (Boehringer Ingelheim Pharma KG, priority 1999, dated 2008)
Counter-ions that a name gives are not always drawn.

What was measured:
human factor Xa = molecular target: T1, human factor Xa (Homo sapiens, UniProt P00742); test: inhibition of factor Xa, enzyme-kinetic measurement with chromogenic substrate; format: biochemical; settings: substrate Chromozym X 200 μMol/l, factor Xa (Roche) 0.175 U/ml, pH 8.0, 37° C., photometric at 405 nm
T1 construct: released from the colourless chromogenic substrate by human factor Xa; purchased Roche
Text: For example, the compounds • A=2-(5-carbamimidoyl-2-hydroxy-phenyl)-N-[3-methyl-4-(pyrrolidin-1-yl-carbonyl)-phenyl]-acetamide-hydrochloride, • B=2-(2-benzyloxy-5-carbamimidoyl-phenyl)-N-(2-ethoxycarbonyl-ethyl)-N-[3-methyl-4-(pyrrolidin-1-yl-carbonyl)-phenyl]-acetamide-hydrochloride, • C=2-(2-hydroxy-5-carbamimidoyl-phenyl)-N-(2-ethoxycarbonyl-ethyl)-N-[3-methyl-4-(pyrrolidin-1-yl-carbonyl)-phenyl]-acetamide-hydrochloride, • D=2-(2-hydroxy-5-carbamimidoyl-phenyl)-N-(2-carboxy-ethyl)-N-[3-methyl-4-(pyrrolidin-1-yl-carbonyl)-phenyl]-acetamide-hydrochloride • E=2-(5-carbamimidoyl-2-hydroxy-phenyl)-N-[3-methyl-4-(piperidin-1-yl-carbonyl)-phenyl]-acetamide-hydrochloride and • F=2-(5-carbamimidoyl-2-hydroxy-phenyl)-N-[3-methyl-4-(2-aminosulphonyl-phenyl)-phenyl]-acetamide-hydrochloride, were investigated for their effect on the inhibition of factor Xa as follows: • Method: Enzyme-kinetic measurement with chromogenic substrate. The quantity of anpnitroaniline (pNA) released from the colourless chromogenic substrate by human factor Xa is determined photometrically at 405 nm. It is proportional to the activity of the enzyme used. The inhibition of the enzyme activity by the test substance I (in relation to the solvent control) is determined at various concentrations of test substance and from this the IC50 is calculated, as the concentration which inhibits the factor Xa used by 50%. • Material: • Tris(hydroxymethyl)-aminomethane buffer (100 mmol) of and sodium chloride (150 mMol), pH 8.0 • Factor Xa (Roche), spec. activity: 10 U/0.5 ml, final concentration: 0.175 U/ml per reaction mixture • Substrate Chromozym X (Roche), final concentration: 200 μMol/l per reaction mixture • Test substance: final concentration 100, 30, 10, 3, 1, 0.3, 0.1, 0.03, 0.01, 0.003, 0.001 μMol/l
Procedure: 10 μl of a 23.5-times concentrated starting solution of the test substance or solvent (control), 175 μl of tris(hydroxymethyl)-aminomethane buffer and 25 μl of Factor Xa working solution of 1.65 U/ml are incubated for 10 minutes at 37° C. After the addition of 25 μl of Chromozym X working solution ([…]) the sample is measured in a photometer (SpectraMax 250) at 405 nm for 150 seconds at 37° C.
• 1. Determining the maximum increase (deltaOD/minutes) over 3 measuring points. • 2. Determining the % inhibition based on the solvent control. • 3. Plotting a dosage/activity curve (% inhibition vs substance concentration). • 4. Determining the IC50 by interpolating the X value (substance concentration) of the dosage/activity curve at Y=50% inhibition.

T1 sequence (P00742 235-488 limits assumed): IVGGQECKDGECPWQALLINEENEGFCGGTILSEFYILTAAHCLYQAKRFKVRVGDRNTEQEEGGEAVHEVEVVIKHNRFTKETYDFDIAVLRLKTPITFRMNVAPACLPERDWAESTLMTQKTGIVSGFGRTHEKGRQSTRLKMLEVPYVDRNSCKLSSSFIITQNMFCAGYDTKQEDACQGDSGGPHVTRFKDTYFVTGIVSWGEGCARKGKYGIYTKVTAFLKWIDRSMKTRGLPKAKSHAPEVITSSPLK
T1 sequence (P00742 41-179 partner limits assumed): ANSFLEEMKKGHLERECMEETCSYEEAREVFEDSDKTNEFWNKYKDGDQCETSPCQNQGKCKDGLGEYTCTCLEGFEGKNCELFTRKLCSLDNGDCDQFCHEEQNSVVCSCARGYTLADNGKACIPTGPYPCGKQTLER

Cl.N=C(N)c1cccc(C(=O)NCc2ccc(Oc3ccncc3)cc2)c1
melting point: 115 °C (dec.)

CCOC(=O)CCN(C(=O)Cc1cc(C(=N)N)ccc1O)c1ccc(C(=O)N2CCCC2)c(C)c1 [C, 2-(2-hydroxy-5-carbamimidoyl-phenyl)-N-(2-ethoxycarbonyl-ethyl)-N-[3-methyl-4-(pyrrolidin-1-yl-carbonyl)-phenyl]-acetamide-hydrochloride]
IC50 (human factor Xa): 0.12 µM

Cc1cc(NC(=O)Cc2cc(C(=N)N)ccc2O)ccc1C(=O)N1CCCC1 [A, 2-(5-carbamimidoyl-2-hydroxy-phenyl)-N-[3-methyl-4-(pyrrolidin-1-yl-carbonyl)-phenyl]-acetamide-hydrochloride]
IC50 (human factor Xa): 0.03 µM

CCOC(=O)CCN(C(=O)Cc1cc(C(=N)N)ccc1OCc1ccccc1)c1ccc(C(=O)N2CCCC2)c(C)c1 [B, 2-(2-benzyloxy-5-carbamimidoyl-phenyl)-N-(2-ethoxycarbonyl-ethyl)-N-[3-methyl-4-(pyrrolidin-1-yl-carbonyl)-phenyl]-acetamide-hydrochloride]
IC50 (human factor Xa): 0.68 µM

Cc1cc(NC(=O)Cc2cc(C(=N)N)ccc2O)ccc1C(=O)N1CCCCC1 [E, 2-(5-carbamimidoyl-2-hydroxy-phenyl)-N-[3-methyl-4-(piperidin-1-yl-carbonyl)-phenyl]-acetamide-hydrochloride]
IC50 (human factor Xa): 0.085 µM

Cl.N=C(N)c1cccc(C(=O)NCc2ccc(NC(=O)c3ccccc3)cc2)c1
melting point: 190 to 215 °C

Cl.N=C(N)c1cccc(C(=O)NCc2ccc(NS(=O)(=O)c3ccccc3)cc2)c1
melting point: 266 °C

Cc1cc(NC(=O)Cc2cc(C(=N)N)ccc2O)ccc1-c1ccccc1S(N)(=O)=O [F, 2-(5-carbamimidoyl-2-hydroxy-phenyl)-N-[3-methyl-4-(2-aminosulphonyl-phenyl)-phenyl]-acetamide-hydrochloride]
IC50 (human factor Xa): 0.26 µM

Cc1cc(N(CCC(=O)O)C(=O)Cc2cc(C(=N)N)ccc2O)ccc1C(=O)N1CCCC1 [D, 2-(2-hydroxy-5-carbamimidoyl-phenyl)-N-(2-carboxy-ethyl)-N-[3-methyl-4-(pyrrolidin-1-yl-carbonyl)-phenyl]-acetamide-hydrochloride]
IC50 (human factor Xa): 0.85 µM
